In US6352960B1, “Controlling agent for agricultural or horticultural bacterial disease” (Meiji Seika Kaisha, Ltd., priority 1998, dated 2002):
Counter-ions that a name gives are not always drawn.

How the values were obtained:
[1] = system: genus Xanthomonas; settings: from Japanese Patent Publication No. Sho 43-27335; cited from earlier work
[2] = system: genus Pseudomonas; settings: from Japanese Patent Publication No. Sho 43-27335; cited from earlier work
[3] = system: vegetables' soft rot disease bacterium (Erwinia carotovora sub-sp. cartovora); assay: in vitro antibacterial test on PDA culture medium; format: cell-based; set-up: key to growth of bacteria: +++: Colonies grew well; ++: Growth was slightly suppressed; +: Growth was strongly suppressed but proliferation was observed; −: No proliferation was observed; settings: for growth of bacteria: 28° C., after 3 days
Experimental: (§1) Each agent was dissolved in sterilized water and added to PDA culture medium (Nissui Seiyaku Co., Ltd.) and Japanese apricot canker bacterium (Pseudomonas syringae pv. morsprunorum), vegetables' soft rot disease bacterium (Erwinia carotovora sub-sp. cartovora), and citrus canker bacterium (Xanthomonas campestris pv. citri) were inoculated.
(§2) The Japanese apricot canker bacterium was cultivated at 21° C., the vegetables' soft rot disease bacterium and citrus canker bacterium were cultivated at 28° C. After 3 days from the start of cultivation, the growth of bacteria was monitored.

[4] = system: citrus canker bacterium (Xanthomonas campestris pv. citri); assay: in vitro antibacterial test on PDA culture medium; format: cell-based; set-up: key to growth of bacteria: +++: Colonies grew well; ++: Growth was slightly suppressed; +: Growth was strongly suppressed but proliferation was observed; −: No proliferation was observed; settings: for growth of bacteria: 28° C., after 3 days
Experimental: as §1, §2

[5] = system: Japanese apricot canker bacterium (Pseudomonas syringae pv. morsprunorum); assay: in vitro antibacterial test on PDA culture medium; format: cell-based; set-up: key to growth of bacteria: +++: Colonies grew well; ++: Growth was slightly suppressed; +: Growth was strongly suppressed but proliferation was observed; −: No proliferation was observed; settings: for growth of bacteria: 21° C., after 3 days
Experimental: as §1, §2

[6] = system: Celery cabbage soft rot; assay: Controlling effect on Celery cabbage soft rot, field test; format: in vivo; settings: sprayed 3 times at 7-day intervals
Experimental: (§3) Preventive value=(1−disease severity of treated lot/disease severity of non-treated lot)×100
(§4) (Disease severity may be replaced by degree of damage or ratio of damage.)
Commercially available Agrepto wettable powder containing 25% of streptomycin sulfate (20% as streptomycin) or commercially available Iminoctadine ABS salt [trade name: Bellkute wettable powder (40%)] was diluted to a predetermined concentration and tested. The preparations produced according to Preparation Examples 1 and 3 were also diluted to predetermined concentrations. In early August, Celery cabbages were sown in 5.2 m^2 per lot in triplicate. From 20 September when the plant reached 10-leaf stage, the predetermined agents were continually sprayed 3 times with intervals of 7 days. In late October, the disease severity and degree of damage of Celery cabbage soft rot were investigated using 4-rank indices.
1: Only a portion of outer leaves damaged;
2: A portion of outer leaves and head portion damaged; and
3: Most part of head portion damaged.
Degree of damage=Σ(Index×the number of individuals)÷(the number of individuals searched×3)×100

[7] = system: Japanese apricot canker bacterium (Pseudomonas syringae pv. morsprunorum); assay: Controlling effect on Japanese apricot bacterial canker (2), potted seedlings, spray inoculation; format: in vivo; settings: leaf spray before inoculation, after 7 days
Experimental: as §3
Japanese apricot seedlings rested for the winter season in the open field were cut to the height of 60 cm and transplanted to 1/5000 a Wagner pots and allowed to sprout and develop leaves in a greenhouse were tested. After giving fine bruises to the leaves with Carborandum, water was sprayed sufficiently to flow away the Carborandum. After air drying, the agents diluted to predetermined concentrations with water were sprayed onto the leaves, which were air dried again. Japanese apricot canker bacterium (Pseudomonas syringae pv. morsprunorum) preliminarily cultivated in PPG medium (200 g of potato, 3 g of disodium phosphate (dodecahydrate), 0.5 g of dikalium phosphate, 5 g of peptone, 3 g of sodium chloride, 5 g of glucose, 1 L of distilled water) was inoculated by spraying together with the medium. The inoculated plants were placed under controlled humid conditions (temperature 20° C., humidity 99% to 100%) for 40 hours and then transferred to a greenhouse to allow the disease to emerge. After 7 days, the lesion area in each lot was measured and disease severity and preventive value were calculated according to the following indices.
1: Several lesions on the leaves of one branch;
2: The damaged area was less than ¼ of the total area of the leaves on one branch;
3: The damaged area was from ¼ to less than ½ of the total area of the leaves on one branch;
4: The damaged area was from ½ to less than ⅔ of the total area of the leaves on one branch; and
5: The damaged area was ⅔ or more of the total area of the leaves on one branch.
Disease severity=Σ(Index×The number of data)÷(Total number of data×5)×100

[8] = system: citrus canker bacterium (Xanthomonas campestris pv. citri); assay: Controlling effect on citrus canker, pot-grown Watson pomelo leaves; format: in vivo; settings: 20 leaves, after 1 month
Experimental: as §3, §4
Commercially available Agrepto wettable powder containing 25% of streptomycin sulfate (20% as streptomycin) or commercially available Iminoctadine ABS salt [trade name: Bellkute wettable powder (40%)] was diluted to a predetermined concentration and tested. The preparations produced according to Preparation Examples 2 and 4 were also diluted to predetermined concentrations. 20 new leaves of pot-grown Watson pomelo were tested for each of the preparations. After wounding the leaves with a needle, each predetermined agent solution was sprayed thereon and the leaves were air dried. Then, citrus canker bacterium (Xanthomonas campestris pv. citri) was inoculated with the density of 1×10^6 cells. Thereafter, the trees were put into controlled cultivation in a greenhouse. After 1 month, the emergence of citrus canker was investigated.

[9] = system: Japanese apricot bacterial canker; assay: Controlling effect on Japanese apricot bacterial canker (1), field trees, spray; format: in vivo; settings: sprayed four times at 10-day intervals
Experimental: as §3
Commercially available Agrepto wettable powder containing 25% of streptomycin sulfate (20% as streptomycin) or commercially available Iminoctadine ABS salt [trade name: Bellkute wettable powder (40%)] was diluted to a predetermined concentration and tested. Also, the preparation produced according to Preparation Example 2 was diluted to a predetermined concentration and tested.
Young 5-year old Japanese apricot trees which frequently suffered from Japanese apricot bacterial canker in the preceding year, were tested. Predetermined agents were continually sprayed four times with intervals of 10 days starting from early April. In May, the disease severity of Japanese apricot bacterial canker was searched on 100 fruits per tree for total 5 trees in each lot and the results were evaluated by 5-rank indices.
The damaged fruits were searched and disease severity and preventive value were calculated using the indices and equation below.
2: Medium=6 to 15 lesions
6: Extreme=31 or more lesions or with cracks
Disease severity=Σ(Index×The number of damaged fruits per degree)÷(6×The number of tested fruits)×100

Cl.N=C(N)NCCCCCCCCCCCCNCCCCCCCCCCCCNC(=N)N [bis (12-guanidinododecyl) amine hydrochloride]
in vitro antibacterial activity against plant pathogenic bacteria [1]: revealed to have in vitro antibacterial activity | in vitro antibacterial activity against plant pathogenic bacteria [2]: revealed to have in vitro antibacterial activity

CCn1cc(C(=O)O)c(=O)c2cc3c(cc21)OCO3 [Oxolinic acid, oxolinic acid]
growth of bacteria ([3]; 1 ppm in PDA medium): − | growth of bacteria ([3]; 10 ppm in PDA medium): − | growth of bacteria ([4]; 1 ppm in PDA medium): +++ | growth of bacteria ([4]; 10 ppm in PDA medium): ++ | growth of bacteria ([5]; 1 ppm in PDA medium): ++ | growth of bacteria ([5]; 10 ppm in PDA medium): − | Degree of damage ([6]; 100 ppm): 3.3 | Preventive value ([6]; 100 ppm): 85 | The number of individuals damaged ([6]; 100 ppm): 4

N=C(N)NCCCCCCCCCCNCCCCCCCCCCNC(=N)N.O=S(=O)(O)O [bis (10-guanidinodecyl) amine sulfate]
in vitro antibacterial activity against plant pathogenic bacteria [1]: revealed to have in vitro antibacterial activity | in vitro antibacterial activity against plant pathogenic bacteria [2]: revealed to have in vitro antibacterial activity

N=C(N)NCCCCCCCCNCCCCCCCCNC(=N)N.O=S(=O)(O)O [bis (8-guanidiooctyl) amine sulfate]
in vitro antibacterial activity against plant pathogenic bacteria [1]: no activity | in vitro antibacterial activity against plant pathogenic bacteria [2]: no activity

N=C(N)NCCCCCCCCNCCCCCCCCNC(=N)N [Iminoctadine ABS salt, bis(8-guanidinooctyl)amine]
Disease severity ([7]; 200 ppm): 19 | Preventive value ([7]; 200 ppm): 73 | growth of bacteria ([3]; 1 ppm in PDA medium): +++ | growth of bacteria ([3]; 10 ppm in PDA medium): +++ | growth of bacteria ([3]; 100 ppm in PDA medium): +++ | suppression of growth in vitro ([3]; even added at 100 ppm): did not suppress the growth | growth of bacteria ([4]; 1 ppm in PDA medium): +++ | growth of bacteria ([4]; 10 ppm in PDA medium): +++ | growth of bacteria ([4]; 100 ppm in PDA medium): +++ | suppression of growth in vitro ([4]; even added at 100 ppm): did not suppress the growth | growth of bacteria ([5]; 1 ppm in PDA medium): +++ | growth of bacteria ([5]; 10 ppm in PDA medium): +++ | growth of bacteria ([5]; 100 ppm in PDA medium): ++ | suppression of growth in vitro ([5]; even added at 100 ppm): did not suppress the growth | Preventive value ([8]; 50 ppm): 55 | Ratio of suffering leaves ([8]; 50 ppm): 45 | The number of suffering leaves ([8]; 50 ppm): 9 | Preventive value ([8]; 100 ppm): 75 | Ratio of suffering leaves ([8]; 100 ppm): 25 | The number of suffering leaves ([8]; 100 ppm): 5 | Preventive value ([8]; 400 ppm): 85 | Ratio of suffering leaves ([8]; 400 ppm): 15 | The number of suffering leaves ([8]; 400 ppm): 3 | Degree of damage ([6]; 200 ppm): 6.4 | Preventive value ([6]; 200 ppm): 71 | The number of individuals damaged ([6]; 200 ppm): 12 | Disease severity ([9]; 200 ppm): 1.2 | Preventive value ([9]; 200 ppm): 68 | The number of damaged fruits ([9]; 200 ppm): 18

[H]/N=C(/N)N[C@H]1[C@H](O)[C@@H](O)[C@H](O[C@@H]2O[C@@H](C)[C@](O)(C=O)[C@H]2O[C@@H]2O[C@@H](CO)[C@H](O)[C@@H](O)[C@@H]2NC)[C@@H](N/C(N)=N\[H])[C@@H]1O [Streptomycin sulfate, streptomycin sulfate]
Disease severity ([7]; 125 ppm): 24 | Preventive value ([7]; 125 ppm): 67 | growth of bacteria ([3]; 1 ppm in PDA medium): + | growth of bacteria ([3]; 10 ppm in PDA medium): − | growth of bacteria ([3]; 100 ppm in PDA medium): − | growth of bacteria ([4]; 1 ppm in PDA medium): ++ | growth of bacteria ([4]; 10 ppm in PDA medium): + | growth of bacteria ([4]; 100 ppm in PDA medium): − | growth of bacteria ([5]; 1 ppm in PDA medium): ++ | growth of bacteria ([5]; 10 ppm in PDA medium): + | growth of bacteria ([5]; 100 ppm in PDA medium): − | Preventive value ([8]; 62.5 ppm): 60 | Ratio of suffering leaves ([8]; 62.5 ppm): 40 | The number of suffering leaves ([8]; 62.5 ppm): 8 | Preventive value ([8]; 125 ppm): 80 | Ratio of suffering leaves ([8]; 125 ppm): 20 | The number of suffering leaves ([8]; 125 ppm): 4 | Preventive value ([8]; 500 ppm): 95 | Ratio of suffering leaves ([8]; 500 ppm): 5 | The number of suffering leaves ([8]; 500 ppm): 1 | Degree of damage ([6]; 125 ppm): 4.6 | Preventive value ([6]; 125 ppm): 79 | The number of individuals damaged ([6]; 125 ppm): 10 | Disease severity ([9]; 125 ppm): 1.6 | Preventive value ([9]; 125 ppm): 57 | The number of damaged fruits ([9]; 125 ppm): 23
